Experimental findings from patent publication US20190175744A1, “INSULIN-INCRETIN CONJUGATES” (Merck Sharp & Dohme Corp., priority 2016, published 2019) are described below.

SMILES strings stand for the structures. Read-outs that look alike come from different tables or passages of the source.

The target of assay [1] is human GLP1R (Homo sapiens, UniProt P43220). The assay is described as follows: cAMP activity assay, cells expressing human GLP1R. The assay is classed as cell-based.
Method: (§1) Activity of the incretin peptides or the conjugates at the Glucagon receptor (GCGR) and GLP-1 receptor (GLP1R) may be measured in a cAMP activity assay as follows.
(§2) Peptides are dissolved in 100% DMSO and serially diluted to generate 10 point titrations. The peptide solutions are then transferred into 384-well assay plates (150 nL/well). Assay ready frozen cells expressing human GLP1R or human GCGR are suspended in growth media consisting of DMEM medium (GIBCO), 10% FBS (GIBCO), 1×NEAA(GIBCO), 1×P/S (GIBCO), 10 μg/mL Blasticidin (GIBCO) and 200 μg/mL Hygromycin (GIBCO). […] The cell suspensions (15 μL) are then added to the assay plates containing the peptide solutions (30,000 cells/well for human GCGR; 10,000 cells/well for human GLP1R). The cells are incubated for one hour at room temperature in the dark.
(§3) Production of cAMP may be determined using HitHunterr cAMPXS kits (DiscoverX) following the manufacturer's protocol. The plates are incubated for overnight at room temperature in the dark. Luminescence may be measured using an EnVision Multilabel plate reader (Perkin Elmer). Native GLP-1 and Glucagon (Bachem) may be used as control peptides. EC50 values may be calculated using uses a 4 parameter logistic fit based on the Levenberg-Marquardt algorithm.
In assay [2] the target is T1, human GCGR (Homo sapiens, UniProt P47871).
T1 construct: expressed in transfected cells; grown with Blasticidin and Hygromycin
The assay is described as follows: cAMP activity assay, cells expressing human GCGR.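 For all read-outs here: cAMP production read by luminescence after one hour of peptide exposure at room temperature, EC50 from logistic curve fit, native glucagon and GLP-1 as control peptides.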 In kind it is cell-based. Conditions: for GCGR/GLP1R ratio: Table 5, ratio of hGCGR EC50 to hGLP1R EC50.
Method: as §1, §2, §3

human GLP1R, sequence (P43220 24-463): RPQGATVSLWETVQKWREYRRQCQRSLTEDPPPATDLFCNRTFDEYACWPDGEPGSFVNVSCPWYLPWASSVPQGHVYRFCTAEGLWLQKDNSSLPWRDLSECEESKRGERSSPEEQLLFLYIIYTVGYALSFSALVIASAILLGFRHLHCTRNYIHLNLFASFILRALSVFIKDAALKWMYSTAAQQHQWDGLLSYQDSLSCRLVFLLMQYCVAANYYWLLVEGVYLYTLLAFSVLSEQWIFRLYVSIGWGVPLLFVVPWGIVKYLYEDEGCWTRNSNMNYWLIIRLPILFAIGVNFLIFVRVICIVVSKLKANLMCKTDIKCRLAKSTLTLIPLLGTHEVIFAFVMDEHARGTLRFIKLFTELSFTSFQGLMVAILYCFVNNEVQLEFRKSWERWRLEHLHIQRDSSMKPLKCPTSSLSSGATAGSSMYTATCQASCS
T1 sequence (P47871 26-477): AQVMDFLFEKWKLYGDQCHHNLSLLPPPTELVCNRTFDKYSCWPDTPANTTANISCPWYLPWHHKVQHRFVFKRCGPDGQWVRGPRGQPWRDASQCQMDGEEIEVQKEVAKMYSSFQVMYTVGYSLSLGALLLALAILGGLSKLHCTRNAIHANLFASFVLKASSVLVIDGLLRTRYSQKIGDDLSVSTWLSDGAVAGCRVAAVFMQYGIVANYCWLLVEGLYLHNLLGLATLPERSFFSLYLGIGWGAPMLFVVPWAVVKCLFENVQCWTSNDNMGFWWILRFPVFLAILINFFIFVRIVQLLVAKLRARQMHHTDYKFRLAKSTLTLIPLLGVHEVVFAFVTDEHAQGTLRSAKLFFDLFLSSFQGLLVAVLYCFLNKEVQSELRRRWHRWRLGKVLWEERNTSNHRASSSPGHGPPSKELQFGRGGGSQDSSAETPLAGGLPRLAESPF

As for `CCCCCCCCCCCCCCCC(=O)N[C@@H](CCC(=O)N[C@@H](CCC(=O)NCCCC[C@H](NC(=O)[C@H](CC(=O)O)NC(=O)[C@H](CO)NC(=O)[C@@H](NC(=O)[C@H](Cc1ccccc1)NC(=O)[C@@H](NC(=O)CNC(=O)[C@H](CCC(N)=O)NC(=O)[C@@H](CO)NC(=O)[C@@H](N)Cc1c[nH]cn1)[C@@H](C)O)[C@@H](C)O)C(=O)N[C@@H](CO)C(=O)N[C@@H](CCCCN)C(=O)N[C@@H](Cc1ccc(O)cc1)C(=O)N[C@@H](CC(C)C)C(=O)N[C@@H](CC(=O)O)C(=O)N[C@@H](CCC(=O)O)C(=O)N[C@@H](CCCNC(=N)N)C(=O)N[C@@H](C)C(=O)N[C@@H](C)C(=O)N[C@@H](CCC(N)=O)C(=O)N[C@@](C)(CC(=O)O)C(=O)N[C@@H](Cc1ccccc1)C(=O)N[C@H](C(=O)N[C@@H](CCCCN=[N+]=[N-])C(=O)N[C@@H](Cc1c[nH]c2ccccc12)C(=O)N[C@@H](CC(C)C)C(=O)N[C@@H](CCS(C)(=O)=O)C(=O)N[C@@H](CC(=O)O)C(=O)N[C@H](C(N)=O)[C@@H](C)O)C(C)C)C(=O)O)C(=O)O` [PEP34], the EC50 in assay [1] stood at 0.05 nM. Also, in assay [2], the EC50 is 0.05 nM and the GCGR/GLP1R ratio was 1.0.
In the case of `CC(C)C[C@H](NC(=O)[C@H](Cc1ccc(O)cc1)NC(=O)[C@H](CCCCN)NC(=O)[C@H](CO)NC(=O)[C@H](Cc1ccc(O)cc1)NC(=O)[C@H](CC(=O)O)NC(=O)[C@H](CO)NC(=O)[C@@H](NC(=O)[C@H](Cc1ccccc1)NC(=O)[C@@H](NC(=O)CNC(=O)[C@H](CCC(N)=O)NC(=O)[C@@H](CO)NC(=O)[C@@H](N)Cc1c[nH]cn1)[C@@H](C)O)[C@@H](C)O)C(=O)N[C@@H](CC(=O)O)C(=O)N[C@@H](CCC(=O)O)C(=O)N[C@@H](CCCNC(=N)N)C(=O)N[C@@H](C)C(=O)N[C@@H](C)C(=O)N[C@@H](CCCCNC(=O)COCCOCCNC(=O)COCCOCCNC(=O)CC[C@H](NC(=O)CCCCCCCCCCCCCCCN=[N+]=[N-])C(=O)O)C(=O)N[C@@H](CC(=O)O)C(=O)N[C@@H](Cc1ccccc1)C(=O)N[C@H](C(=O)N[C@@H](CCC(N)=O)C(=O)N[C@@H](Cc1c[nH]c2ccccc12)C(=O)N[C@@H](CC(C)C)C(=O)N[C@@H](CC(C)C)C(=O)N[C@@H](CC(=O)O)C(=O)N[C@H](C(N)=O)[C@@H](C)O)C(C)C` [PEP26], the EC50 in assay [1] came to 0.12 nM. Moreover, in assay [2], the EC50 turned out to be 0.12 nM and the GCGR/GLP1R ratio was 1.0.
With `CCCCCCCCCCCCCCCC(=O)N[C@@H](CCC(=O)N[C@@H](CCC(=O)NCCCC[C@H](NC(=O)[C@H](CC(=O)O)NC(=O)[C@H](CO)NC(=O)[C@@H](NC(=O)[C@H](Cc1ccccc1)NC(=O)[C@@H](NC(=O)CNC(=O)[C@H](CCC(N)=O)NC(=O)[C@@H](CO)NC(=O)[C@@H](N)Cc1c[nH]cn1)[C@@H](C)O)[C@@H](C)O)C(=O)N[C@@H](CO)C(=O)N[C@@H](CCCCN)C(=O)N[C@@H](Cc1ccc(O)cc1)C(=O)N[C@@H](CC(C)C)C(=O)N[C@@H](CC(=O)O)C(=O)N[C@@H](CCC(=O)O)C(=O)N[C@@H](CCCNC(=N)N)C(=O)N[C@@H](C)C(=O)N[C@@H](C)C(=O)N[C@@H](CCC(N)=O)C(=O)N[C@@H](CC(=O)O)C(=O)N[C@@H](Cc1ccccc1)C(=O)N[C@H](C(=O)N[C@@H](CCCCN=[N+]=[N-])C(=O)N[C@@H](Cc1c[nH]c2ccccc12)C(=O)N[C@@](C)(CC(C)C)C(=O)N[C@@H](CCS(C)(=O)=O)C(=O)N[C@@H](CC(=O)O)C(=O)N[C@H](C(N)=O)[C@@H](C)O)C(C)C)C(=O)O)C(=O)O` [PEP37], the EC50 in assay [1] (Table 5, incretin peptides, cAMP, read-out: hGLP1R EC50) was found to be 0.04 nM; in assay [2] (Table 5, incretin peptides, cAMP, read-out: hGCGR_EC50), 0.06 nM. Further, the GCGR/GLP1R ratio in assay [2] amounted to 1.5.
